Source: patent US3939143A, “1-N-isoserylkanamycins and the production thereof” (Zaidan Hojin Biseibutsu Kagaku Kenkyu Kai, priority 1973, dated 1976)
Converted amounts (≈) assume the structure as drawn. Like-named read-outs stand apart in the source and are kept apart here.

Legend:
[1] = test system: Salmonella enteritidis 1891; assay: Minimum inhibitory concentration, serial dilution on nutrient agar; type: cell-based; settings: Salmonella enterica, read-out: Minimum Inhibitory Concentration
[2] = test system: Escherichia coli LA290 R64; assay: as above; type: cell-based; settings: LA290R64, 18 h, read-out: Minimum Inhibitory Concentration
Sarcina lutea PCI 1001 = assay: as above; type: cell-based; settings: Micrococcus luteus, PCI1001, 18 h, read-out: Minimum Inhibitory Concentration
[3] = test system: Mycobacterium smegmatis ATCC 607; assay: as above; type: cell-based; settings: Mycolicibacterium smegmatis, read-out: Minimum Inhibitory Concentration
[4] = test system: Pseudomonas aeruginosa No.12; assay: as above; type: cell-based; settings: NO.12, 18 h, read-out: Minimum Inhibitory Concentration
[5] = acute toxicity upon intravenous injection in mice; type: in vivo; settings: mouse, in vivo; intravenous injection, mice
[6] = test system: Klebsiella pneumoniae PCI 602; assay: Minimum inhibitory concentration, serial dilution on nutrient agar; type: cell-based; settings: read-out: Minimum Inhibitory Concentration
[7] = test system: Staphylococcus aureus Smith; assay: as above; type: cell-based; settings: read-out: Minimum Inhibitory Concentration
[8] = test system: Shigella flexneri 4b JS 11811; assay: as above; type: cell-based; settings: 4BJS11811, 37°C, 18 hours
Experimental: (§1) The minimum inhibitory concentrations (mcg/ml) of 1-N-DL-isoserylkanamycin,1-N-DL-isoserylkanamycin B and 1-N-DL-isoseryl-3',4'-dideoxykanamycin B against various microorganisms were determined according to the serial dilution method using nutrient agar medium at 37°C, the estimation being effected after 18 hours incubation. For comparison purposes, the minimum inhibitory concentrations of kanamycin, kanamycin B and 3',4'-dideoxykanamycin B were also determined in the same manner and under the same conditions as mentioned above.
(§2) The antibacterial spectra of 1-N-DL-isoseryl-kanamycin (abbreviated as 1-IS-KM), 1-N-DL-isoseryl-kanamycin B (abbreviated as 1-IS-KMB) and 1-N-DL-isoseryl-3',4'-dideoxykanamycin B (abbreviated as 1-IS-DKB) are shown in the following table together with those of kanamycin (abbreviatedas KM), kanamycin B (abbreviated as KMB) and 3',4'-dideoxykanamycin B (abbreviated as DKB).

[9] = test system: Pseudomonas aeruginosa A3; assay: as above; type: cell-based; settings: 37°C, 18 hours
Experimental: as §1, §2

[10] = test system: Escherichia coli K-12 ML 1630; assay: as above; type: cell-based; settings: K12ML1630, 37°C, 18 hours
Experimental: as §1, §2

[11] = test system: Pseudomonas aeruginosa TI-13; assay: as above; type: cell-based; settings: TI13, 37°C, 18 hours
Experimental: as §1, §2

Shigella sonnei JS 11746 = assay: as above; type: cell-based; settings: JS11746, 37°C, 18 hours
Experimental: as §1, §2

[12] = test system: Pseudomonas aeruginosa GN315; assay: as above; type: cell-based; settings: read-out: Minimum Inhibitory Concentration
[13] = test system: drug-resistant strains of Escherichia coli and Pseudomonas aeruginosa; assay: antibacterial activity against drug-resistant strains, in words; type: cell-based
[14] = test system: Escherichia coli JR66/W677; assay: Minimum inhibitory concentration, serial dilution on nutrient agar; type: cell-based; settings: JR66/W677, 37°C, 18 hours, read-out: Minimum Inhibitory Concentration
[15] = test system: Shigella dysenteriae JS 11910; assay: as above; type: cell-based; settings: JS11910, 18 h, read-out: Minimum Inhibitory Concentration
[16] = test system: Escherichia coli LA290 R55; assay: as above; type: cell-based; settings: LA290R55, 18 h, read-out: Minimum Inhibitory Concentration
[17] = test system: Klebsiella pneumoniae 22 No. 3038; assay: as above; type: cell-based; settings: 22NO.3038, 18 h, read-out: Minimum Inhibitory Concentration
[18] = test system: Bacillus subtilis PCI 219; assay: as above; type: cell-based; settings: read-out: Minimum Inhibitory Concentration
[19] = test system: Escherichia coli K-12 ML 1410 R81; assay: as above; type: cell-based; settings: 18 h, read-out: Minimum Inhibitory Concentration
[20] = test system: Corynebacterium bovis 1810; assay: as above; type: cell-based; settings: read-out: Minimum Inhibitory Concentration
Bacillus anthracis = assay: microbe, parasite or virus in culture; type: cell-based; settings: 18 h, read-out: Minimum Inhibitory Concentration
Escherichia coli W677 = assay: Minimum inhibitory concentration, serial dilution on nutrient agar; type: cell-based; settings: read-out: Minimum Inhibitory Concentration
[21] = test system: Staphylococcus aureus FDA 209P; assay: as above; type: cell-based; settings: FDA209P, 18 h, read-out: Minimum Inhibitory Concentration
Escherichia coli K-12 = assay: as above; type: cell-based; settings: read-out: Minimum Inhibitory Concentration
Escherichia coli NIHJ = assay: as above; type: cell-based; settings: 18 h, read-out: Minimum Inhibitory Concentration
[22] = test system: Bacillus subtilis NRRL B-558; assay: as above; type: cell-based; settings: read-out: Minimum Inhibitory Concentration
[23] = test system: Escherichia coli K-12 ML 1410; assay: as above; type: cell-based; settings: read-out: Minimum Inhibitory Concentration
[24] = test system: Bacillus cereus ATCC 10702; assay: as above; type: cell-based; settings: read-out: Minimum Inhibitory Concentration
[25] = test system: Staphylococcus aureus Terajima; assay: as above; type: cell-based; settings: read-out: Minimum Inhibitory Concentration
[26] = test system: Escherichia coli K-12 ML 1629; assay: as above; type: cell-based; settings: read-out: Minimum Inhibitory Concentration
[27] = test system: Escherichia coli LA290 R56; assay: as above; type: cell-based; settings: LA290R56, 18 h, read-out: Minimum Inhibitory Concentration
[28] = test system: Pseudomonas aeruginosa 99; assay: as above; type: cell-based; settings: Pseudomonas aeruginosa, 99, 18 h, read-out: Minimum Inhibitory Concentration
[29] = test system: gram-negative and gram-positive bacteria; assay: antibacterial activity, in words; type: cell-based; settings: for antibacterial activity relative to the DL-form (racemic form): optically active L- or D-isoseryl form
Experimental: as §1, §2

Proteus vulgaris OX 19 = assay: Minimum inhibitory concentration, serial dilution on nutrient agar; type: cell-based; settings: read-out: Minimum Inhibitory Concentration
Salmonella typhosa T-63 = assay: as above; type: cell-based; settings: Salmonella enterica, 18 h, read-out: Minimum Inhibitory Concentration
mice = assay: acute toxicity upon intravenous injection in mice; type: in vivo; settings: optically active L- or D-isoseryl form
phosphotransferase = settings: phosphorylation of the 3'-hydroxyl group; cited from earlier work
[30] = test system: kanamycin-resistant strains; settings: phosphotransferase-producing resistant strains; cited from earlier work
[31] = test system: Escherichia coli JR66/W677; settings: nucleotidyltransferase-producing resistant strain; cited from earlier work
nucleotidyltransferase = settings: adenylylation of 2"-hydroxyl group with ATP; cited from earlier work

Row | Compound | MIC [2] [µg/mL] | MIC (Sarcina lutea PCI 1001) [µg/mL] | MIC [4] [µg/mL] | MIC [8] [µg/mL] | MIC [9] [µg/mL] | MIC [10] [µg/mL] | MIC [11] [µg/mL] | MIC (Shigella sonnei JS 11746) [µg/mL] | MIC [14] [µg/mL] | MIC [15] [µg/mL] | MIC [16] [µg/mL] | MIC [17] [µg/mL] | MIC [19] [µg/mL] | MIC (Bacillus anthracis) [µg/mL] | MIC [21] [µg/mL] | MIC (Escherichia coli NIHJ) [µg/mL] | MIC [27] [µg/mL] | MIC [28] [µg/mL] | MIC (Salmonella typhosa T-63) [µg/mL] | toxicity relative to the DL-form (mice) | further results
1 | NCC(O)C(=O)N[C@@H]1C[C@H](N)[C@@H](O[C@H]2O[C@H](CN)[C@@H](O)[C@H](O)[C@H]2N)[C@H](O)[C@H]1O[C@H]1O[C@H](CO)[C@@H](O)[C@H](N)[C@H]1O (mixture of isomers) [1-IS-KMB, 1-N-DL-isoserylkanamycin B] | 0.78 | 6.25 | 6.25 | 3.13 | 6.25 | 3.13 | 6.25 | 6.25 | 12.5 | 6.25 | 1.56 | 6.25 | 3.13 | < 0.2 | 1.56 | 3.13 | 0.78 | 6.25 | 0.78 | – | MIC ([1]; 37°C, 18 hours): 0.78 µg/mL; MIC ([3]; ATCC607, 37°C, 18 hours): 0.78 µg/mL; LD50 [5]: > 100 mg/kg; MIC ([6]; PCI602, 37°C, 18 hours): 0.78 µg/mL; MIC ([7]; 37°C, 18 hours): < 0.2 µg/mL; MIC ([12]; GN315, 37°C, 18 hours): 50 µg/mL; antibacterial activity [13]: high antibacterial activity; MIC ([18]; PCI219, 37°C, 18 hours): < 0.2 µg/mL; MIC ([20]; Corynebacterium bovis, 1810, 37°C, 18 hours): 1.56 µg/mL; MIC (Escherichia coli W677; W677, 37°C, 18 hours): 0.78 µg/mL; MIC (Escherichia coli K-12; K12, 37°C, 18 hours): 1.56 µg/mL; MIC ([22]; NRRLB558, 37°C, 18 hours): < 0.2 µg/mL; MIC ([23]; K12ML1410, 37°C, 18 hours): 1.56 µg/mL; MIC ([24]; ATCC10702, 37°C, 18 hours): 1.56 µg/mL; MIC ([25]; 37°C, 18 hours): < 0.2 µg/mL; MIC ([26]; K12ML1629, 18 h): 3.13 µg/mL; antibacterial activity ([29]; gram-negative and gram-positive bacteria sensitive to kanamycins): high antibacterial activity; MIC (Proteus vulgaris OX 19; OX19, 37°C, 18 hours): 0.78 µg/mL
2 | NC[C@@H](O)C(=O)N[C@@H]1C[C@H](N)[C@@H](O[C@H]2O[C@H](CN)[C@@H](O)[C@H](O)[C@H]2O)[C@H](O)[C@H]1O[C@H]1O[C@H](CO)[C@@H](O)[C@H](N)[C@H]1O [1-N-D-isoserylkanamycin] | – | – | – | – | – | – | – | – | – | – | – | – | – | – | – | – | – | – | – | the same as those of 1-N-DL-isoserylkanamycin | antibacterial activity relative to the DL-form (racemic form) [29]: the same as those of 1-N-DL-isoserylkanamycin
3 | NC[C@H](O)C(=O)N[C@@H]1C[C@H](N)[C@@H](O[C@H]2O[C@H](CN)[C@@H](O)[C@H](O)[C@H]2O)[C@H](O)[C@H]1O[C@H]1O[C@H](CO)[C@@H](O)[C@H](N)[C@H]1O [1-N-L-isoserylkanamycin] | – | – | – | – | – | – | – | – | – | – | – | – | – | – | – | – | – | – | – | the same as those of 1-N-DL-isoserylkanamycin | antibacterial activity relative to the DL-form (racemic form) [29]: the same as those of 1-N-DL-isoserylkanamycin
4 | NC[C@H]1O[C@H](O[C@H]2[C@H](O)[C@@H](O[C@H]3O[C@H](CO)[C@@H](O)[C@H](N)[C@H]3O)[C@H](N)C[C@@H]2N)[C@H](O)C[C@@H]1O [3'-Deoxykanamycin] | – | – | – | – | – | – | – | – | – | – | – | – | – | – | – | – | – | – | – | – | susceptibility to / inactivation by phosphotransferase (phosphotransferase): not susceptible; activity against kanamycin-resistant strains [30]: actually effective; activity against Escherichia coli JR66/W677 [31]: inactive
5 | NC[C@H]1O[C@H](O[C@H]2[C@H](O)[C@@H](O[C@H]3O[C@H](CO)[C@@H](O)[C@H](N)[C@H]3O)[C@H](N)C[C@@H]2N)[C@H](O)[C@@H](O)[C@@H]1O [KM, kanamycin] | 12.5 (≈ 25.8 µM) | 6.25 (≈ 12.9 µM) | 25 (≈ 51.6 µM) | 6.25 (≈ 12.9 µM) | 50 (≈ 103 µM) | > 100 | > 100 | 3.13 (≈ 6.46 µM) | > 100 | 6.25 (≈ 12.9 µM) | 100 (≈ 206 µM) | > 100 | > 100 | < 0.2 | 0.78 (≈ 1.61 µM) | 1.56 (≈ 3.22 µM) | 12.5 (≈ 25.8 µM) | > 100 | 0.39 (≈ 0.805 µM) | – | MIC ([1]; 18 h): 0.78 µg/mL (≈ 1.61 µM); MIC ([3]; ATCC607, 18 h): 0.78 µg/mL (≈ 1.61 µM); MIC ([6]; PCI602, 18 h): 0.78 µg/mL (≈ 1.61 µM); MIC ([7]; 18 h): < 0.2 µg/mL; MIC ([12]; GN315, 18 h): > 100 µg/mL; MIC ([18]; PCI219, 18 h): < 0.2 µg/mL; inactivation by nucleotidyltransferase (nucleotidyltransferase): inactivating; MIC ([20]; Corynebacterium bovis, 1810, 18 h): 3.13 µg/mL (≈ 6.46 µM); MIC (Escherichia coli W677; W677, 18 h): 1.56 µg/mL (≈ 3.22 µM); MIC (Escherichia coli K-12; K12, 18 h): 1.56 µg/mL (≈ 3.22 µM); MIC ([22]; NRRLB558, 18 h): < 0.2 µg/mL; MIC ([23]; K12ML1410, 18 h): 1.56 µg/mL (≈ 3.22 µM); MIC ([24]; ATCC10702, 18 h): 1.56 µg/mL (≈ 3.22 µM); MIC ([25]; 18 h): < 0.2 µg/mL; MIC ([26]; K12ML1629, 37°C, 18 hours): > 100 µg/mL; MIC (Proteus vulgaris OX 19; OX19, 18 h): 0.78 µg/mL (≈ 1.61 µM)
